Marks after values point to notes of the source that are not given here.
Columns and labels:
[1] = Adverse events after single oral doses, healthy subjects (Part A); format: in vivo, human; conditions: for Blood creatine phosphokinase increased (adverse events reported by >1 subject in total) / Diarrhea (drug-related adverse events) / Dizziness (drug-related adverse events) / Headache (adverse events reported by >1 subject in total) / Headache (drug-related adverse events) / Hot flush (drug-related adverse events) / At least one adverse event: healthy subjects; for At least one adverse event: n = 8
Protocol: This double-blind, randomized, placebo-controlled, single escalating-dose crossover study was conducted in two parts: Part A consisted of a randomized, dose-escalation in healthy subjects; Part B was of similar design, but conducted in subjects with T2DM and included an evaluation of pharmacodynamics using a 50 g oral glucose tolerance test (OGTT).
Ten healthy subjects were evaluated in 5 study sessions, each separated by approximately 2 weeks. At each study session, subjects received either an oral dose of remogliflozin etabonate or placebo after an overnight fast. Remogliflozin etabonate doses were 20 mg, 50 mg, 150 mg, 500 mg and 1000 mg. Over the course of participation in the study, each subject received 4 of the 5 active remogliflozin etabonate doses and 1 dose of placebo (4:1 active to placebo ratio per treatment period). The available safety and PK results from each dosing period were evaluated before proceeding to the next dose level.
All subjects were admitted to the unit two nights prior to receiving study drug to establish baseline safety parameters and fluid intake levels over a 36 h period. Subjects remained in the unit for at least 24 h after doses were administered for monitoring of clinical laboratory parameters exploratory biomarkers, vital signs, ECGs and adverse events. While confined to the clinical research unit, all subjects received meals standardized with respect to calories, fat, protein, carbohydrate, and sodium content; however, detailed dietary information was not captured in this study. In Part A, subjects were dosed following an overnight fast; lunch and dinner were provided at 4 and 10 h after dosing, respectively. Fifteen minutes after dosing in each treatment period in Part B, a fasting OGTT was performed using 50 g glucose (administered as 50 g Glucola™). A 50 g glucose load was chosen since the OGTT was being performed in subjects already known to have diabetes. The glucose drink was consumed by subjects within approximately 5 minutes. Blood samples for the measurement of glucose, insulin, and intact glucagon-like peptide 1 (GLP-1) were collected for 24 hours following dose administration. Provided that there were no safety or tolerability concerns, subjects were released from the clinic on day 2 of each treatment period until their return for the next treatment or follow-up period. Each subject was involved in the study for approximately 8 weeks (from screening to follow-up).

SGLT2 = biological target: T1, SGLT2 (Homo sapiens, UniProt P31639); test: 24-h urine glucose excretion, T2DM subjects; format: in vivo; conditions: mean (SD)
T1 construct: from tissue; host or cells: kidney (proximal tubule) of living human subjects: healthy volunteers and T2DM patients
T1 sequence (P31639 1-672): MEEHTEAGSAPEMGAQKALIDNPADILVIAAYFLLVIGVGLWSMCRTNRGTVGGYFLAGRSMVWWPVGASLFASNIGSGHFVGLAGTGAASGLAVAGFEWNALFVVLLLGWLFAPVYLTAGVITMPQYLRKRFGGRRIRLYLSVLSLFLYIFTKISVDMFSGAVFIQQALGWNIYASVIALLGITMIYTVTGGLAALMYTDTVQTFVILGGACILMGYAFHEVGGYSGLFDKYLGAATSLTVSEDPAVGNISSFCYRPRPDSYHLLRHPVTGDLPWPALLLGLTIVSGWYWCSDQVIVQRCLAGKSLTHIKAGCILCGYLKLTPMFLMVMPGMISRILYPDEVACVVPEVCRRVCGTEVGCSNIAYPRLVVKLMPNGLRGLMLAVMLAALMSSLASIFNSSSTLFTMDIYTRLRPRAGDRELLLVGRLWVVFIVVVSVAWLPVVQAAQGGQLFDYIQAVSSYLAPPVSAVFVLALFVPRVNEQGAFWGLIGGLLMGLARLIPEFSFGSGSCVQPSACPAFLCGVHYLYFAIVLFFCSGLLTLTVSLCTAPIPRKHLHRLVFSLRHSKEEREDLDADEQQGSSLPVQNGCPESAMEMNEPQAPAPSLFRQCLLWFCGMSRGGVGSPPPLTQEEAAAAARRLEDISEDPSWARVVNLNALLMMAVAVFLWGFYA
Protocol: (§1) Urine samples were collected at pre-dose, and over a series of intervals (0–2, 2–4, 4–6, 6–8, 8–12 and 12–24 h post-dose) for the analysis of creatinine, glucose and electrolytes (Na, K and Cl). All fluid intake was recorded, as well as urine volume, over the 24 hours before and after dosing in each treatment period. Urine was tested for protein on the first morning void of day -1 and 24 h after dosing.
The percentage of filtered glucose excreted in the urine for each individual time period was calculated as the amount of glucose excreted during that time period divided by (CLCR × PG × time interval length), where CLCR is the creatinine clearance for the time interval, PG is the plasma glucose concentration closest to the midpoint of the time interval, and the time interval is the period (min) of urine collection (CLCR × PG represents the glucose filtered load). For the 24-h period, the percentage of filtered glucose excreted was calculated as the amount of glucose excreted over 24 h divided by the sum over the individual time intervals of (CLCR × PG × time interval length).

[2] = 24-h urine electrolyte excretion, T2DM subjects; format: in vivo, human; conditions: mean (SD)
Protocol: as §1

Urinary glucose excretion (SGLT2; 50 mg single dose): 384 (210) mmol | Filtered glucose excreted in urine (SGLT2; 50 mg single dose, n = 5): 15.9 (5.9)^c % | Filtered glucose excreted in urine (SGLT2; 500 mg single dose): 21.6 (9.1) % | Urinary glucose excretion (SGLT2; 500 mg single dose): 642 (256) mmol | Urinary chloride excretion ([2]; 50 mg single dose, n = 5): 168 (23.9)^c mmol | Urinary potassium excretion ([2]; 50 mg single dose, n = 5): 65.8 (4.5)^c mmol | Urinary sodium excretion ([2]; 50 mg single dose, n = 5): 173 (35.5)^c mmol | Urinary chloride excretion ([2]; 500 mg single dose): 287 (147) mmol | Urinary potassium excretion ([2]; 500 mg single dose): 108 (65.8) mmol | Urinary sodium excretion ([2]; 500 mg single dose): 301 (128) mmol
SMILES: CCOC(=O)OC[C@H]1O[C@@H](Oc2nn(C(C)C)c(C)c2Cc2ccc(OC(C)C)cc2)[C@H](O)[C@@H](O)[C@@H]1O [Remogliflozin etabonate, remogliflozin etabonate]
Tolerability ([1]; all subjects, single oral doses 20-1000 mg, no deaths, serious adverse events or withdrawals): generally well-tolerated | Blood creatine phosphokinase increased (adverse events reported by >1 subject in total) ([1]; 20 mg single oral dose): 0 n (%) | Diarrhea (drug-related adverse events) ([1]; 20 mg single oral dose): 1 (13) n (%) | Dizziness (drug-related adverse events) ([1]; 20 mg single oral dose): 0 n (%) | Headache (adverse events reported by >1 subject in total) ([1]; 20 mg single oral dose): 1 (13) n (%) | Headache (drug-related adverse events) ([1]; 20 mg single oral dose): 1 (13) n (%) | Hot flush (drug-related adverse events) ([1]; 20 mg single oral dose): 0 n (%) | At least one adverse event ([1]; 20 mg single oral dose): 2 (25) n (%) | Blood creatine phosphokinase increased (adverse events reported by >1 subject in total) ([1]; 50 mg single oral dose): 0 n (%) | Diarrhea (drug-related adverse events) ([1]; 50 mg single oral dose): 0 n (%) | Dizziness (drug-related adverse events) ([1]; 50 mg single oral dose): 0 n (%) | Headache (adverse events reported by >1 subject in total) ([1]; 50 mg single oral dose): 1 (13) n (%) | Headache (drug-related adverse events) ([1]; 50 mg single oral dose): 1 (13) n (%) | Hot flush (drug-related adverse events) ([1]; 50 mg single oral dose): 0 n (%) | At least one adverse event ([1]; 50 mg single oral dose): 3 (38) n (%) | Blood creatine phosphokinase increased (adverse events reported by >1 subject in total) ([1]; 150 mg single oral dose): 0 n (%) | Diarrhea (drug-related adverse events) ([1]; 150 mg single oral dose): 0 n (%) | Dizziness (drug-related adverse events) ([1]; 150 mg single oral dose): 0 n (%) | Headache (adverse events reported by >1 subject in total) ([1]; 150 mg single oral dose): 0 n (%) | Headache (drug-related adverse events) ([1]; 150 mg single oral dose): 0 n (%) | Hot flush (drug-related adverse events) ([1]; 150 mg single oral dose): 0 n (%) | At least one adverse event ([1]; 150 mg single oral dose): 1 (13) n (%) | Blood creatine phosphokinase increased (adverse events reported by >1 subject in total) ([1]; 500 mg single oral dose): 1 (13) n (%) | Diarrhea (drug-related adverse events) ([1]; 500 mg single oral dose): 0 n (%) | Dizziness (drug-related adverse events) ([1]; 500 mg single oral dose): 0 n (%) | Headache (adverse events reported by >1 subject in total) ([1]; 500 mg single oral dose): 2 (25) n (%) | Headache (drug-related adverse events) ([1]; 500 mg single oral dose): 0 n (%) | Hot flush (drug-related adverse events) ([1]; 500 mg single oral dose): 0 n (%) | At least one adverse event ([1]; 500 mg single oral dose): 3 (38) n (%) | Blood creatine phosphokinase increased (adverse events reported by >1 subject in total) ([1]; 1000 mg single oral dose): 0 n (%) | Diarrhea (drug-related adverse events) ([1]; 1000 mg single oral dose): 0 n (%) | Dizziness (drug-related adverse events) ([1]; 1000 mg single oral dose): 1 (13) n (%) | Headache (adverse events reported by >1 subject in total) ([1]; 1000 mg single oral dose): 1 (13) n (%) | Headache (drug-related adverse events) ([1]; 1000 mg single oral dose): 1 (13) n (%) | Hot flush (drug-related adverse events) ([1]; 1000 mg single oral dose): 1 (13) n (%) | At least one adverse event ([1]; 1000 mg single oral dose): 1 (13) n (%)

From paper PMC3700763, “First human dose-escalation study with remogliflozin etabonate, a selective inhibitor of the sodium-glucose transporter 2 (SGLT2), in healthy subjects and in subjects with type 2 diabetes mellitus” (BMC Pharmacology & Toxicology, 2013)
